Assay results: PubChem BioAssay (NCI)
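Here, GI50 denotes the concentration required for 50% inhibition of growth. TGI: concentration producing complete growth inhibition.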

Columns and labels:
Assay in all cases: NCI-60 cell line screen, 384-well format
[1] = tested on: LOX IMVI melanoma
[2] = tested on: SK-OV-3 ovarian
[3] = tested on: RPMI-8226 leukemia
[4] = tested on: MDA-MB-435 melanoma
[5] = tested on: NCI-H522 lung
[6] = tested on: SF-295 CNS
[7] = tested on: PC-3 prostate
[8] = tested on: IGROV1 ovarian
[9] = tested on: RXF 393 renal
[10] = tested on: U251 glioblastoma
[11] = tested on: KM12 colon
[12] = tested on: 786-0 renal
[13] = tested on: NCI-H460 NSCLC
[14] = tested on: SW-620 colon
[15] = tested on: MALME-3M melanoma
[16] = tested on: SK-MEL-28 melanoma
[17] = tested on: NCI/ADR-RES ovarian
[18] = tested on: OVCAR-3 ovarian
[19] = tested on: MDA-MB-231 breast
[20] = tested on: SK-MEL-2 melanoma
[21] = tested on: NCI-H322M lung
[22] = tested on: MDA-MB-468 breast
[23] = tested on: A549 NSCLC
[24] = tested on: HS 578T breast
[25] = tested on: TK-10 renal
[26] = tested on: HL-60(TB) leukemia
[27] = tested on: A498 renal
[28] = tested on: NCI-H226 lung
[29] = tested on: UACC-62 melanoma
[30] = tested on: EKVX NSCLC
[31] = tested on: DU-145 prostate
[32] = tested on: CCRF-CEM leukemia
[33] = tested on: SF-268 CNS
[34] = tested on: UACC-257 melanoma
[35] = tested on: MOLT-4 leukemia
[36] = tested on: UO-31 renal
[37] = tested on: SNB-75 CNS
[38] = tested on: CAKI-1 renal
[39] = tested on: HCT-15 colon
[40] = tested on: HOP-62 NSCLC
[41] = tested on: BT-549 breast
[42] = tested on: COLO 205 colon
[43] = tested on: HT29 colon
[44] = tested on: SNB-19 CNS
[45] = tested on: SK-MEL-5 melanoma
[46] = tested on: K-562 leukemia
[47] = tested on: HCT-116 colon
[48] = tested on: SN12C renal
[49] = tested on: SF-539 CNS
[50] = tested on: OVCAR-4 ovarian
[51] = tested on: OVCAR-5 ovarian
[52] = tested on: T-47D breast

`CC[C@H](CO)Nc1nc(NCc2ccccc2)c2ncn(C(C)C)c2n1` was tested, and the GI50 [1] was 19.3 µM, the TGI [1] was 37.5 µM and the GI50 [2] was 36.5 µM. For the same compound, the TGI [2] was > 100 µM, the GI50 [3] was 17 µM and the TGI [3] was 31.6 µM. It also gave a GI50 [4] of 23.2 µM, a TGI [4] of 64.6 µM and a GI50 [5] of 18.3 µM. The TGI [5] was 50.6 µM, the GI50 [6] was 25.2 µM and the TGI [6] was 78.6 µM. For the same compound, the GI50 [7] was 21 µM, the TGI [7] was 56.1 µM and the GI50 [8] was 26.5 µM. For the same compound, the TGI [8] was 95.8 µM, the GI50 [9] was 14.1 µM and the TGI [9] was 28.2 µM. The GI50 [10] was 28.2 µM, the TGI [10] was > 100 µM and the GI50 [11] was 18.8 µM. For the same compound, the TGI [11] was 43.6 µM, the GI50 [12] was 22.7 µM and the TGI [12] was 61.5 µM. It also gave a GI50 [13] of 16.2 µM, a TGI [13] of 31.8 µM and a GI50 [14] of 29.5 µM. The TGI [14] was 89.9 µM, the GI50 [15] was 24.8 µM and the TGI [15] was 57.8 µM. The GI50 [16] was 16.3 µM, the TGI [16] was 36.4 µM and the GI50 [17] was 22.3 µM. It also gave a TGI [17] of 75.2 µM, a GI50 [18] of 17.2 µM and a TGI [18] of 43.9 µM. For the same compound, the GI50 [19] was 22.4 µM, the TGI [19] was 62.9 µM and the GI50 [20] was 36.7 µM. It also gave a TGI [20] of 63.6 µM, a GI50 [21] of 19.1 µM and a TGI [21] of 49.9 µM. For the same compound, the GI50 [22] was 19.8 µM, the TGI [22] was 37.9 µM and the GI50 [23] was 27.5 µM. The TGI [23] was > 100 µM, the GI50 [24] was 15.2 µM and the TGI [24] was 32.3 µM. It also gave a GI50 [25] of 25 µM, a TGI [25] of 83.6 µM and a GI50 [26] of 14.8 µM. It also gave a TGI [26] of 28.1 µM, a GI50 [27] of 27.2 µM and a TGI [27] of 82.1 µM. It also gave a GI50 [28] of 22.4 µM, a TGI [28] of 68.3 µM and a GI50 [29] of 13.7 µM. It also gave a TGI [29] of 27.3 µM, a GI50 [30] of 23 µM and a TGI [30] of 59.6 µM. The GI50 [31] was 20.9 µM, the TGI [31] was 56.3 µM and the GI50 [32] was 16.8 µM. For the same compound, the TGI [32] was 33.3 µM, the GI50 [33] was 15.3 µM and the TGI [33] was 35.6 µM. For the same compound, the GI50 [34] was 21.2 µM, the TGI [34] was 59.5 µM and the GI50 [35] was 17.3 µM. It also gave a TGI [35] of 32.1 µM, a GI50 [36] of 20.9 µM and a TGI [36] of 45 µM. It also gave a GI50 [37] of 16.6 µM, a TGI [37] of 35.4 µM and a GI50 [38] of 24 µM. For the same compound, the TGI [38] was 77.4 µM, the GI50 [39] was 19.4 µM and the TGI [39] was 60.3 µM. For the same compound, the GI50 [40] was 21.8 µM, the TGI [40] was 62.2 µM and the GI50 [41] was 15.9 µM. The TGI [41] was 33.6 µM, the GI50 [42] was 21.3 µM and the TGI [42] was 52.8 µM. The GI50 [43] was 20.1 µM, the TGI [43] was 47.2 µM and the GI50 [44] was 26.8 µM. The TGI [44] was > 100 µM, the GI50 [45] was 15.4 µM and the TGI [45] was 31.8 µM. For the same compound, the GI50 [46] was 36.1 µM, the TGI [46] was > 100 µM and the GI50 [47] was 16.4 µM. It also gave a TGI [47] of 35.3 µM, a GI50 [48] of 21.1 µM and a TGI [48] of 52.1 µM. The GI50 [49] was 19.1 µM, the TGI [49] was 40.3 µM and the GI50 [50] was 32 µM. For the same compound, the TGI [50] was > 100 µM, the GI50 [51] was 24.8 µM and the TGI [51] was > 100 µM. The GI50 [52] was 24.9 µM and the TGI [52] was 76.1 µM.
